Measurements: patent US20140235544A1, “DISEASE TREATMENT VIA ANTIMICROBIAL PEPTIDES OR THEIR INHIBITORS” (priority 2013, published 2014)

Assays:
[1] = system: psoriatic lesions in a human subject; test: Human in-vivo psoriatic lesion treatment
Protocol: Human in-vivo psoriatic lesion treatment: Cathelicidin 10 ug/ml or human beta defensin-2 diluted in PBS containing 0.1% BSA, or buffer carrier was applied to lesions in a human subject in a blind trial.

[2] = Infection and immunity, November 1999; cited from earlier work
[3] = system: BETATC beta cell line; test: Thymidine incorporation cell proliferation assay; type: cell-based, mouse; conditions: 2 microgram/ml, 3.5 days
Protocol: Murine beta cell line were treated for 3.5 days with LL-37 at 2 microgram/ml (red/dark bars) and compared to PBS control ([…]). Cell proliferation was estimated by measuring [3(H)]-thymidine incorporation and was expressed as percent of control untreated cells. A representative experiment is shown.
The antimicrobial peptides human cathelicidin LL-37: […] was obtained from AnaSpec, USA (Catalogue numbers: 61302). Cathelicidin at 2 ug/ml was added to the plate and compared with control.
Cell proliferation was evaluated by measuring [3(H)]-thymidine incorporation into DNA. Cells were pulsed with [3(H)]-thymidine (1 microcurie/mL, ICN, Irvine, Calif.) for 1 hour, at 37 degrees centigrade. After incubation, cells were washed 3 times with PBS, incubated for 15 minutes at room temperature in 5% trichloroacetic acid and solubilized in 1% triton X-100. The radioactivity incorporated into the cells was counted in the [3(H)]-window of a Tricarb liquid scintillation counter. Mean values were determined from measurements of triplicate samples under each experimental condition for each experiment. Thymidine incorporation was determined as number of disintegrations per minute (DPM) per mg of protein.

[4] = 10 ug/ml applied to lesion, 5 days treatment

Substance | change of skin psoriatic lesion [1, 4] | change of skin psoriatic lesion ([1]; applied to lesion, seven week course of treatment) | half-life in blood of humans [2] | beta cell proliferation ([3(H)]-thymidine incorporation) vs PBS control [3]
SKEKIGKEFKRIVQRIKDFLRNLVPRTES (listed as Homo sapiens) [SK29, cathelicidin fragment, 29 amino acids] | slight improvement |  |  | 
human beta defensin-2 [reference compound] |  | worsening |  | 
LLGDFFRKSKEKIGKEFKRIVQRIKDFLRNLVPRTES [LL-37] | slight improvement |  | approximately 3.4 days | significant BETATC beta cell line proliferation
